Source: patent US20250161309A1, “TOPICAL COMPOSITIONS AND USES THEROF” (TOPADUR PHARMA AG, priority 2022, published 2025)

Tests used:
[1] = tested on: battery of 44 targets (SafetyScreen44); test: Off-target selectivity, (radio)ligand binding and enzymatic assays, SafetyScreen44 (Eurofins Cerep); design: species or system human; conditions: 100 nM; all 44 targets of Table 4 (incl. hERG, PDE3A, PDE4D2, COX1, COX2); no significant responses
Experimental: In vitro pharmacological profiling is increasingly being used earlier in the drug discovery process to identify undesirable off-target activity profiles that could hinder or halt the development of candidate drugs or even lead to market withdrawal if discovered after a drug is approved (Bowes N, et. al., Nature Reviews Drug Discovery 11(12):909-22). Thus, the Off-target selectivity of Compound 1 at 100 nM was tested in (radio)ligand binding and enzymatic assays against a battery of 44 targets (SafetyScreen44™, atEurofins Cerep, France).

[2] = tested on: C57BL/6 mouse model for chemotherapy-induced alopecia (CIA); test: Preventive C57BL/6 mouse model of cyclophosphamide (chemotherapy)-induced alopecia (CIA), topical administration; format: in vivo; conditions: female mice; for mice with visual melanogenesis in peeled skin: end of study; for Ki-67 mean score (positive cells near the root sheath of hair follicles, semi-quantitative grading): vehicle 0.4; for CD-31 mean score (perifollicular angiogenesis, semi-quantitative grading): vehicle group 0.8
Experimental: Female C57BL/6 mice (Vivo Bio Tech Ltd, Telangana, India) of 6 to 9 weeks of age in stable telogen phase of hair growth cycle were used.
100 μL of a clear solution of respective 0.0004%, 0.002% (w/v) concentrations of Cpd 1 in the corresponding vehicle (PEG-400:EtOH/7:3) (PEG-400: Central Drug House Ltd. Dehli, India; Ethanol: Changshu Hongsheng fine chemicals Co. Ltd. China) and the positive control, 2% solution (w/v) Minoxidil (Chemieliva, China) in the corresponding vehicle (PEG-400:EtOH/7:3) were topically applied to the depilated area on the dorsal back of female mice. The solutions covered a circular area of approximately 4 cm^2. The treatment regimen was twice daily for 7 days before Cyclophosphamide injection and afterwards for 3 weeks.
Animals (female) on day 1 weighted on average 18.8 g+0.2 ranging from 18.5 to 19.3 g. The animals were exposed by gentle clipping of hair from the dorsal back using an electric clipper. The following day, animals with clear skin were depilated using a depilatory cream. To evaluate the preventive potential of Cpd 1 in the chemotherapy-induced alopecia mouse model, animals were treated topically with 0.0004% and 0.002% Cpd 1, 2% Minoxidil and vehicle from day 1 onwards on the dorsal depilated skin with twice daily application regimen until day 10, when all the animals have attained the anagen stage. On day 11 after depilation, no application of the Cpd 1 or vehicle was done. This was considered a wash-out period. On day 12 after depilation, the animals were given intraperitoneal injection of cyclophosphamide (CYP-HiMedia Laboratories, Mumbai, India) at the dose of 150 mg/kg body weight. One day of wash-out period was given to the animals before restarting the treatment with Cpd 1. The treatment regimen was reinitiated with 0.0004% and 0.002% Cpd 1, 2% Minoxidil and vehicle in the respective groups for further 3 weeks. All the animals were observed from day 1 (experiment start) till day 30 (experiment termination and animal sacrifice day) and the hair growth score was recorded on a daily basis. The criteria for scoring of hair growth is as follows: no hair growth, pink skin—score 0; skin colour changes from pink to grey/light grey without visible hair growth—score 0.5; onset of anagen (skin colour changes from grey/light grey to dark grey/black without visible hair growth)—score 1; sparse hair growth—score 1.5; diffuse short hair growth—score 2, moderate hair growth—score 2.5 and dense, normal coat hair—score 3 (Lee B H, Lee J S, Kim Y C. Hair growth-promoting effects of lavender oil in C57BL/6 mice. Toxicol Res. (2016) 32(2):103-108). Photographs of the animals were captured before the initiation and during the course of the study. […]
After completion of the experiments all animals were sacrificed by euthanasia (Choi H I, Kang B M, Jang J, Hwang S T, Kwon O. Novel effect of sildenafil on hair growth. Biochem Biophys Res Commun. (2018) 505(3):685-691). The dorsal skin of each animal was then removed by peeling. The peeled skin was spread and checked visually for the induction of melanogenesis indicated by visual blackening on the reverse side of the skin. The skin samples were evenly spread on a pre-labelled glass slide and kept in 10% formalin until further use. Later, the skin samples were embedded in paraffin and sectioned at 5 microns using a microtome and the corresponding slides per animal were prepared. The slides obtained were used for Haematoxylin & Eosin (H&E) staining and in the transverse and longitudinal sections' photomicrographs data, the total number of follicles in the dermis and the sub cutis were determined for each animal. The skin thickness was measured using Image J 1.44 software. […]

SMILES: CCCOc1ccc(S(=O)(=O)N2CCC(CCO[N+](=O)[O-])(CCO[N+](=O)[O-])CC2)cc1-c1nc2c(CCC)cn(CC)c2c(=O)[nH]1 [Cpd 1, (1-((3-(5-ethyl-4-oxo-7-propyl-4,5-dihydro-3H-pyrrolo[3,2-d]pyrimidin-2-yl)-4-propoxyphenyl)sulfonyl)piperidine-4,4-diyl)bis(ethane-2,1-diyl) dinitrate]
- inhibition or stimulation to any of the targets [1]: < 50%
- number of hair follicles, Cpd 1 compared with 2% Minoxidil-treated groups [2]: No significant differences
- signs of alopecia after CYP administration on day 12 ([2]; 0.0004% (w/v)): minor signs of alopecia
- mice with visual melanogenesis in peeled skin ([2]; 0.0004% (w/v)): 6/7
- Ki-67 mean score (positive cells near the root sheath of hair follicles, semi-quantitative grading) ([2]; 0.0004% (w/v)): 1.4
- CD-31 mean score (perifollicular angiogenesis, semi-quantitative grading) ([2]; 0.0004% (w/v)): 1.4
- depth and development of dermal papilla and long hair shaft of hair follicles observed (longitudinal skin sections) ([2]; 0.0004% and 0.002%): majority of the animals
- thickness of the skin compared to vehicle group ([2]; 0.0004% and 0.002%): slightly increase
- skin color change (transition from telogen to anagen phase) compared to Minoxidil-treated group ([2]; 0.0004% and 0.002%, before CYP administration, majority of animals, end of first week of application): faster
- increase in hair growth, 0.002% compared to 0.0004% ([2]; 0.002% (w/v)): slightly faster increase
- signs of alopecia after CYP administration on day 12 ([2]; 0.002% (w/v)): no signs of alopecia
- mice with visual melanogenesis in peeled skin ([2]; 0.002% (w/v)): 7/7
- Ki-67 mean score (positive cells near the root sheath of hair follicles, semi-quantitative grading) ([2]; 0.002% (w/v)): 1.7
- CD-31 mean score (perifollicular angiogenesis, semi-quantitative grading) ([2]; 0.002% (w/v)): 1.6
- adverse effects on body weight ([2]; 30-day study, any of the groups): no adverse effects
- behavioral changes, reaction to treatment or adverse effects in relation to general health ([2]; 30-day study, topical twice daily): no signs of behavioral changes, reaction to treatment or adverse effects
- decrease in the mean hair growth after CYP administration ([2]; Compound 1 treated groups): no decrease
- number of hair follicles in the subcutis layer of the skin and total follicle counts compared to vehicle group (H&E) ([2]; Compound 1 treated groups): significantly increased
- animals with complete hair regrowth (hair growth score of 3) ([2]; Cpd 1 groups (0.0004% and 0.002%)): 7/7
- increase in hair growth compared to Minoxidil and vehicle group ([2]; from day 6/7 onwards): faster increase
